Reference: patent US12145923B2, “Tetrahydroisoquinoline compound, preparation method therefor, pharmaceutical composition containing same, and use thereof” (SHANGHAI INSTITUTE OF MATERIA MEDICA, CHINESE ACADEMY OF …, priority 2018, dated 2024)
Read-outs that look alike come from different tables or passages of the source. Each block holds one compound with its values, some of them ahead of it.

Tests used:
[1] = biological target: Human PDE4D catalytic domain (Homo sapiens (Human), UniProt Q08499); assay: Scintillation Proximity Assay (SPA), inhibition of PDE4D catalytic domain activity; format: biochemical; settings: for inhibition at 1 µM: read-out: PDE4D enzyme activity inhibition rate %; for IC50: PDE4D, unit given as mM, read-out: IC50
Human PDE4D catalytic domain, sequence (Q08499 386-715): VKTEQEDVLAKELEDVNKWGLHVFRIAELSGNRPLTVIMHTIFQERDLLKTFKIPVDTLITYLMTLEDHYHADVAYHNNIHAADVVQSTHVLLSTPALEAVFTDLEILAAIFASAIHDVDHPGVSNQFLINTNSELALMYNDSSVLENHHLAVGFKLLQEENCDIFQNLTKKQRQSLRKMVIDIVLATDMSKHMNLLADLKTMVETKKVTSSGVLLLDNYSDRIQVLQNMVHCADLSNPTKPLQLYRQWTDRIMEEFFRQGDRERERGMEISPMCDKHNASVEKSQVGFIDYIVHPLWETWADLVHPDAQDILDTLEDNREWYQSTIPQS

[2] = tested on: TNF-α secretion in PBMC; assay: Inhibition of LPS-stimulated TNF-α secretion in PBMC (ELISA); format: cell-based; settings: Homo sapiens, TNF-α secretion in PBMC; for inhibition at 1 µM / inhibition at 10 µM: read-out: Inhibition rate %
[3] = tested on: tumor necrosis factor-α secretion in RAW 264.7 cells; assay: Inhibition of LPS-stimulated tumor necrosis factor-α secretion in RAW 264.7 cells (ELISA); format: cell-based, mouse; settings: Mus musculus, RAW264.7, 4 h, read-out: Tumor necrosis factor-α inhibition rate/%; for inhibition at 0.5 µM: RAW 264.7, 0.5 μM; for inhibition at 5 µM: RAW 264.7, 5 μM; for inhibition at 50 µM: RAW 264.7, 50 μM
Procedure: After the activation by bacterial lipopolysaccharide (LPS), various inflammatory mediators such as tumor necrosis factor-α will be released; Phosphodiesterase PDE4 is also expressed in macrophages, and the inhibitory activity of the compound on phosphodiesterase PDE4 can be reflected by detecting the secretion of tumor necrosis factor-α.
Under the stimulation of 1 μg/ml LPS (L5886, Sigma, St. Louis, MO, USA), the cells were cultured in a 37° C., 5% CO2 incubator for 4 h. The background control with no stimulant and stimulation control wells were also set, with a total volume of 200 μl. The culture supernatant was collected by centrifugation, and the secretion level of tumor necrosis factor-α in the culture supernatant was detected by enzyme-linked immunosorbent assay. The tumor necrosis factor-α detection kit was purchased from BD Pharmingen (San Diego, CA, USA).

[4] = tested on: RAW 264.7 cells; assay: Cytotoxicity on RAW 264.7 cells (CCK-8 method); format: cell-based, mouse
Procedure: Mouse RAW 264.7 cells were purchased from American Type Culture Collection (Manassas, VA, USA), and cultivated in DMEM culture medium (Hyclone, South Logan, UT, USA) containing 10% fetal bovine serum (Hyclone, South Logan, UT, USA). Cells were collected and counted before use, and inoculated in a 96-well plate (Corning, NY, USA) at 1×10^5/well. […] 20 μl of CCK-8 solution (Dojindo, Kumamoto, Japan) was added at 30 min before the end of the culture. After the cultivation was ended, the absorbance OD value was measured at 450 nm (reference 650 nm) on amicroplate reader (Molecular Devices, Sunnyvale, CA, USA). The toxicity of the compound on RAW 264.7 cells was calculated by dividing the OD value of the test sample by the OD value of the cell control well, which was labeled as the cell survival rate M %.

inhibition at 1 µM ([1]; Compound concentration: 1 μM): 21.5%
Structure (SMILES): COc1cc2c(cc1OC1CCCC1)C(CCc1c[nH]c3ccc(C)cc13)N(C=O)CC2 (stereo not shown) [Compound C2, 7-(cyclopentyloxy)-6-methoxy-1-(2-(5-methyl-1H-indol-3-yl)ethyl)-3,4-dihydroisoquinoline-2(1H)-formaldehyde]
inhibition at 1 µM [2]: 15.8% | inhibition at 10 µM [2]: 52.4% | inhibition at 0.5 µM [3]: -18.2% | inhibition at 5 µM [3]: -24.5% | inhibition at 50 µM [3]: 97.2% | Cell survival rate/% ([4]; RAW 264.7, 0.5 μM): 112.4% | Cell survival rate/% ([4]; RAW 264.7, 5 μM): 106.3% | Cell survival rate/% ([4]; RAW 264.7, 50 μM): 62.7%

inhibition at 1 µM ([1]; Compound concentration: 1 μM): 82.9% | IC50 [1]: 0.00019 mM
Structure (SMILES): COCC(=O)N1CCc2cc(OC)c(OC)cc2[C@@H]1CCc1c[nH]c2ccccc12 [(S)-B11, (S)-1-(1-(2-(1H-indol-3-yl)ethyl)-6,7-dimethoxy-3,4-dihydroisoquinoline-2(1H)-yl)-2-methoxyethane-1-one]
inhibition at 1 µM [2]: 60.1% | inhibition at 10 µM [2]: 90.7% | IC50 ([2]; read-out: IC50): 240 nM | inhibition at 0.5 µM [3]: -7.8% | inhibition at 5 µM [3]: 1.1% | inhibition at 50 µM [3]: 51.3% | Cell survival rate/% ([4]; RAW 264.7, 0.5 μM): 110.9% | Cell survival rate/% ([4]; RAW 264.7, 5 μM): 111.2% | Cell survival rate/% ([4]; RAW 264.7, 50 μM): 102.2%

inhibition at 1 µM ([1]; Compound concentration: 1 μM): 68.5% | IC50 [1]: 0.00057 mM
Structure (SMILES): COc1cc2c(cc1OC)C(CCc1c[nH]c3ccccc13)N(CCS(C)(=O)=O)CC2 (stereo not shown) [Compound B8, 1-(2-(1H-indol-3-yl)ethyl)-6,7-dimethoxy-2-(2-(methylsulfonyl)ethyl)-1,2,3,4-tetrahydroisoquinoline]
inhibition at 1 µM [2]: 31.6% | inhibition at 10 µM [2]: 77.8% | inhibition at 0.5 µM [3]: 33.6% | inhibition at 5 µM [3]: 36.1% | inhibition at 50 µM [3]: 31.8% | Cell survival rate/% ([4]; RAW 264.7, 0.5 μM): 113.4% | Cell survival rate/% ([4]; RAW 264.7, 5 μM): 100.7% | Cell survival rate/% ([4]; RAW 264.7, 50 μM): 100.5%

inhibition at 1 µM ([1]; Compound concentration: 1 μM): 19.2%
Structure (SMILES): COCCN1CCc2cc(OC)c(OC)cc2C1CCc1c[nH]c2ccccc12 (stereo not shown) [Compound B2, 1-(2-(1H-indol-3-yl)ethyl)-6,7-dimethoxy-2-(2-methoxyethyl)-1,2,3,4-tetrahydroisoquinoline]
inhibition at 10 µM [2]: 25.7% | inhibition at 0.5 µM [3]: 6.2% | inhibition at 5 µM [3]: 18.8% | inhibition at 50 µM [3]: 83.9% | Cell survival rate/% ([4]; RAW 264.7, 0.5 μM): 88.3% | Cell survival rate/% ([4]; RAW 264.7, 5 μM): 83.5% | Cell survival rate/% ([4]; RAW 264.7, 50 μM): 71.4%

inhibition at 1 µM ([1]; Compound concentration: 1 μM): 29.5%
Structure (SMILES): COc1cc2c(cc1OC)[C@H](CCc1c[nH]c3ccccc13)N(C(=O)C(F)(F)F)CC2 [(S)-B10, (S)-1-(1-(2-(1H-indol-3-yl)ethyl)-6,7-dimethoxy-3,4-dihydroisoquinoline-2(1H)-yl)-2,2,2-trifluoroethane-1-one]
inhibition at 1 µM [2]: 19.9% | inhibition at 10 µM [2]: 59.6% | inhibition at 0.5 µM [3]: -3% | inhibition at 5 µM [3]: -27.9% | inhibition at 50 µM [3]: 33.7% | Cell survival rate/% ([4]; RAW 264.7, 0.5 μM): 89.2% | Cell survival rate/% ([4]; RAW 264.7, 5 μM): 84.9% | Cell survival rate/% ([4]; RAW 264.7, 50 μM): 93.8%

inhibition at 1 µM ([1]; Compound concentration: 1 μM): 10.8%
Structure (SMILES): COc1cc2c(cc1OCc1ccccc1)C(CCc1c[nH]c3ccccc13)N(C=O)CC2 (stereo not shown) [Compound A5, 1-(2-(1H-indol-3-yl)ethyl)-7-(benzyloxy)-6-methoxy-3,4-dihydroisoquinoline-2(1H)-formaldehyde]
inhibition at 10 µM [2]: 23.8% | inhibition at 0.5 µM [3]: -0.2% | inhibition at 5 µM [3]: -8.1% | inhibition at 50 µM [3]: 79.3% | Cell survival rate/% ([4]; RAW 264.7, 0.5 μM): 118.7% | Cell survival rate/% ([4]; RAW 264.7, 5 μM): 120.8% | Cell survival rate/% ([4]; RAW 264.7, 50 μM): 111.3%

inhibition at 1 µM ([1]; Compound concentration: 1 μM): 93.5%
Structure (SMILES): CCOc1cc2c(cc1OC)CCN(C=O)[C@H]2CCc1c[nH]c2ccc(OC(F)F)cc12 [(S)-C77, (S)-7-ethoxy-6-methoxy-1-(2-(5-difluoromethoxy-1H-indol-3-yl)ethyl)-3,4-dihydroisoquinoline-2(1H)-formaldehyde]

inhibition at 1 µM ([1]; Compound concentration: 1 μM): 36.8%
Structure (SMILES): CCOc1cc2c(cc1OC)CCN(S(=O)(=O)c1ccc(F)cc1F)[C@H]2CCc1c[nH]c2ccc(OC)cc12 [(S)-C52, (S)-7-ethoxy-6-methoxy-1-(2-(5-methoxy-1H-indol-3-yl)ethyl)-2-(2,4-difluorophenyl)sulfonyl-1,2,3,4-tetrahydroisoquinoline]

inhibition at 1 µM ([1]; Compound concentration: 1 μM): 49.7%
Structure (SMILES): CCOc1cc2c(cc1OC)CCN(S(=O)(=O)c1ccc(F)cc1)[C@H]2CCc1c[nH]c2ccc(OC)cc12 [(S)-C58, (S)-7-ethoxy-6-methoxy-1-(2-(5-methoxy-1H-indol-3-yl)ethyl)-2-(4-fluorophenyl)sulfonyl-1,2,3,4-tetrahydroisoquinoline]

inhibition at 1 µM ([1]; Compound concentration: 1 μM): 62%
Structure (SMILES): CCOc1cc2c(cc1OC)CCN(S(=O)(=O)C1CC1)[C@H]2CCc1c[nH]c2ccc(OC)cc12 [(S)-C48, (S)-7-ethoxy-6-methoxy-1-(2-(5-methoxy-1H-indol-3-yl)ethyl)-2-cyclopropylsulfonyl-1,2,3,4-tetrahydroisoquinoline]

inhibition at 1 µM ([1]; Compound concentration: 1 μM): 37.9%
Structure (SMILES): CCOc1cc2c(cc1OC)CCN(S(=O)(=O)c1ccc(F)c(F)c1)[C@H]2CCc1c[nH]c2ccc(OC)cc12 [(S)-C51, (S)-7-ethoxy-6-methoxy-1-(2-(5-methoxy-1H-indol-3-yl)ethyl)-2-(3,4-difluorophenyl)sulfonyl-1,2,3,4-tetrahydroisoquinoline]

inhibition at 1 µM ([1]; Compound concentration: 1 μM): 83.8%
Structure (SMILES): COc1ccc2[nH]cc(CC[C@H]3c4cc(C(N)=O)c(OC)cc4CCN3C=O)c2c1 [(S)-C70, (S)-2-formyl-6-methoxy-1-(2-(5-methoxy-1H-indol-3-yl)ethyl)-1,2,3,4-tetrahydroisoquinoline-7-carboxamide]

inhibition at 1 µM ([1]; Compound concentration: 1 μM): 56.3%
Structure (SMILES): CCOc1cc2c(cc1OC)CCN(S(=O)(=O)CC)[C@H]2CCc1c[nH]c2ccc(OC)cc12 [(S)-C53, (S)-7-ethoxy-6-methoxy-1-(2-(5-methoxy-1H-indol-3-yl)ethyl)-2-ethylsulfonyl-1,2,3,4-tetrahydroisoquinoline]

inhibition at 1 µM ([1]; Compound concentration: 1 μM): 42.4%
Structure (SMILES): CCOc1cc2c(cc1OC)CCN(C(=O)C(F)F)[C@H]2CCc1c[nH]c2ccc(OC)cc12 [(S)-C59, (S)-7-ethoxy-1-(2-(5-methoxy-1H-indol-3-yl)ethyl)-6-methoxy-3,4-dihydroisoquinolin-2(1H)-2,2-difluoroethane-1-one]

inhibition at 1 µM ([1]; Compound concentration: 1 μM): 46%
Structure (SMILES): CCOc1cc2c(cc1OC)CCN(C(=O)C(F)(F)F)[C@H]2CCc1c[nH]c2ccc(OC)cc12 [(S)-C54, (S)-7-ethoxy-1-(2-(5-methoxy-1H-indol-3-yl)ethyl)-6-methoxy-3,4-dihydroisoquinoline-2(1H)-trifluoroethane-1-one]

inhibition at 1 µM ([1]; Compound concentration: 1 μM): 70.8%
Structure (SMILES): COc1cc2c(cc1OC)[C@H](CCc1csc3ccccc13)N(C=O)CC2 [(S)-C61, (S)-1-(2-(benzo[b]thiothiophen-3-yl)ethyl)-6,7-dimethoxy-3,4-dihydroisoquinoline-2(1H)-formaldehyde]

inhibition at 1 µM ([1]; Compound concentration: 1 μM): 49.4%
Structure (SMILES): CCOc1cc2c(cc1OC)CCN(S(=O)(=O)c1ccccc1)[C@H]2CCc1c[nH]c2ccc(OC)cc12 [(S)-C47, (S)-7-ethoxy-6-methoxy-1-(2-(5-methoxy-1H-indol-3-yl)ethyl)-2-phenylsulfonyl-1,2,3,4-tetrahydroisoquinoline]

inhibition at 1 µM ([1]; Compound concentration: 1 μM): 66.4%
Structure (SMILES): CCOc1cc2c(cc1OC)CCN(S(=O)(=O)c1ccc(Br)c(F)c1)[C@H]2CCc1c[nH]c2ccc(OC)cc12 [(S)-C56, (S)-7-ethoxy-6-methoxy-1-(2-(5-methoxy-1H-indol-3-yl)ethyl)-2-(3-fluoro-4-bromophenyl) sulfonyl-1,2,3,4-tetrahydroisoquinoline]

Structure (SMILES): COc1ccc2[nH]cc(CC[C@H]3c4cc(OC(F)F)c(OC)cc4CCN3C=O)c2c1 [(S)-C64, (S)-7-difluoromethoxy-1-(2-(5-methoxy-1H-indol-3-yl)ethyl)-6-methoxy-3,4-dihydroisoquinoline-2(1H)-formaldehyde]
inhibition at 1 µM [1]: 76.5%

Structure (SMILES): COC(=O)c1cc2c(cc1OC)[C@H](CCc1c[nH]c3ccc(OC)cc13)N(C=O)CC2 [(S)-C67, methyl-(S)-2-formyl-7-methoxy-1-(2-(5-methoxy-1H-indol-3-yl)ethyl)-1,2,3,4-tetrahydroisoquinoline-6-carboxylate]
inhibition at 1 µM [1]: 85.9%

inhibition at 1 µM ([1]; Compound concentration: 1 μM): 92.3%
Structure (SMILES): CCOc1cc2c(cc1OC)CCN(C=O)[C@H]2CCc1c[nH]c2ccc(OC(F)(F)F)cc12 [(S)-C76, (S)-7-ethoxy-6-methoxy-1-(2-(5-trifluoromethoxy-1H-indol-3-yl)ethyl)-3,4-dihydroisoquinoline-2(1H)-formaldehyde]

inhibition at 1 µM ([1]; Compound concentration: 1 μM): 49.4%
Structure (SMILES): CCOc1cc2c(cc1OC)CCN(S(=O)(=O)c1cccc(F)c1)[C@H]2CCc1c[nH]c2ccc(OC)cc12 [(S)-C50, (S)-7-ethoxy-6-methoxy-1-(2-(5-methoxy-1H-indol-3-yl)ethyl)-2-(3-fluorophenyl)sulfonyl-1,2,3,4-tetrahydroisoquinoline]

inhibition at 1 µM ([1]; Compound concentration: 1 μM): 80.5%
Structure (SMILES): CNC(=O)c1cc2c(cc1OC)CCN(C=O)[C@H]2CCc1c[nH]c2ccc(OC)cc12 [(S)-C69, (S)-2-formyl-6-methoxy-1-(2-(5-methoxy-1H-indol-3-yl)ethyl)-N-methyl-1,2,3,4-tetrahydroisoquinoline-7-carboxamide]

inhibition at 1 µM ([1]; Compound concentration: 1 μM): 68.7%
Structure (SMILES): CCOc1cc2c(cc1OC)CCN(C=O)[C@H]2CCc1c[nH]c2ccc(C#N)cc12 [(S)-C65, (S)-7-ethoxy-6-methoxy-1-(2-(5-cyano-1H-indol-3-yl)ethyl)-3,4-dihydroisoquinoline-2(1H)-formaldehyde]
